Experimental data taken from patent EP4467154A1, “MEDICINE FOR TREATING OR PREVENTING CANCER” (CHUGAI SEIYAKU KABUSHIKI KAISHA, priority 2022, dated 2023).
Where two headings read alike, the source gives them in different places. Bridge positions count the residues as written; N and C are the ends. Square brackets hold non-standard residues; d marks the D form. Peptide text beside a SMILES is read from it. hPhe(3,5-F2-4-CF3) = N[C@@H](CCc1cc(F)c(C(F)(F)F)c(F)c1)C(=O)O; NEtPhe(4-Me) = CCN[C@@H](Cc1ccc(C)cc1)C(=O)O; NMeGly(cPent) = CN[C@H](C(=O)O)C1CCCC1; NMeD = CN[C@@H](CC(=O)O)C(=O)O; NMeL = CN[C@@H](CC(C)C)C(=O)O; NMeA = CN[C@@H](C)C(=O)O; Ac5c = NC1(C(=O)O)CCCC1; Aze = O=C(O)[C@@H]1CCN1; Sar = CNCC(=O)O

Columns and labels:
[1] = test system: lung cancer line NCI-H1373 (KRAS-G12C); test: In vivo antitumor activity, NCI-H1373 xenograft model (Example 11); design: species or system Nude mice; conditions: compound 1 5 mg/kg orally once a day, TNO155 5 mg/kg orally twice a day, 35 days, Figure 19
Description: A xenograft model to which lung cancer line NCI-H1373 (KRAS-G12C) was transplanted was used to evaluate in vivo antitumor activity due to combined use of compound 1 and TNO155. Nude mice were subcutaneously transplanted with 5 × 10^6 cells per mouse, and when the tumor volume reached 200 to 300 mm^3, the nude mice were randomized and administration of compound 1 and/or the compound for combined use was started (n = 8). Compound 1 was orally administered once a day and TNO155 was orally administered twice a day for an administration period of 35 days. The doses of the agents were 5 mg/kg for compound 1 and 5 mg/kg for TNO155. Compound 1 was dissolved in 10% DMSO/5% Cremphor EL/85% Distilled water and TNO155 was dissolved in 0.5% Tween 80/0.5% methylcellulose/99% distilled water, and administered. From the tumor volume data on the last measurement day, the tumor growth inhibition rate (Tumor Growth Inhibition %: TGI%) was calculated using the following formulas. […] Tumor growth inhibition rate (TGI%) = (1−TV/CV) × 100 [formula] Tumor volume (mm^3) = 1/2 × major axis (mm) × minor axis (mm) × minor axis (mm) [formula] [formula] • TV: Mean of the amount of change in tumor volume in the compound 1 monotherapy group, the TNO155 monotherapy group, or the combined use group • CV: Mean of the amount of change in tumor volume in the vehicle group

NCI-H358 [2] = conditions: read-out: set GI concentration (concentration as a single drug giving GI 50), set GI% 50%, 144 hours, test with trametinib
Experimental: (§1) Human cancer cell lines were seeded on a 384-well round bottom ultra-low attachment plate at a concentration of 750 cells per well and cultured in a 5% carbon gas incubator at 37°C. After 24 hours, CellTiter-Glo 2.0 (Promega Corporation) was added to part of the wells (3 wells), and the amount of ATP (V0) was determined using Envision plate readers (PerkinElmer Co., Ltd.). V0 was taken as the amount of ATP at time 0. DMSO alone or compound 1 and/or the compound for combined use each were added to another three wells. Compound 1 and the compound for combined use were used by serially diluting in 8 steps at a common ratio of 3 with 300 nM and 10 or 3000 nM taken as their respective highest concentrations. […] After culturing for 144 hours after addition of DMSO alone or compound 1 and/or the compound for combined use, the amount of ATP (T and V) was determined for the cells to which DMSO alone was added (DMSO-treated group) or the cells to which compound 1 and/or the compound for combined use was added (compound 1 and/or compound for combined use-treated group). […] The growth inhibition rate (Growth Inhibition %: GI%) was calculated using the following formulas. […] (1−(T−V0)/V0) × 100 [formula] (when T < V0) (1−(T−V0)/(V−V0)) × 100 [formula] […]

[3] = test system: lung cancer line NCI-H441 (KRAS-G12C); test: In vivo antitumor activity, NCI-H441 xenograft model (Example 12); design: species or system Nude mice; conditions: compound 1 3 mg/kg or 5 mg/kg, compound 2 0.25 mg/kg, orally once a day, 14 days, Figure 20
Experimental: (§2) A xenograft model to which lung cancer line NCI-H441 (KRAS-G12C) or NCI-H1373 (KRAS-G12C) was transplanted was used to evaluate in vivo antitumor activity due to combined use of compound 1 and compound 2. Nude mice were subcutaneously transplanted with 5 × 10^6 cells per mouse, and when the tumor volume reached 200 to 300 mm^3, randomization was performed and administration of compound 1 and/or the compound for combined use was started (n = 5). Compound 1 and compound 2 were orally administered once a day for an administration period of 14 days. The doses of the agents were 3 mg/kg or 5 mg/kg for compound 1 and 0.25 mg/kg for compound 2. Compound 1 was dissolved in 10% DMSO/5% Cremphor EL/85% Distilled water and compound 2 was dissolved in 10% DMSO/10% Cremphor EL/15% PEG400/15% HPBCD/50% distilled water, and administered. From the tumor volume data on the last measurement day, the tumor growth inhibition rate (Tumor Growth Inhibition %: TGI%) was calculated using the following formulas. […] Tumor growth inhibition rate (TGI%) = (1−TV/CV) × 100 [formula] Tumor volume (mm^3) = 1/2 × major axis (mm) × minor axis (mm) × minor axis (mm) [formula] [formula] • TV: Mean of the amount of change in tumor volume in the compound 1 monotherapy group, the compound 2 monotherapy group, or the combined use group • CV: Mean of the amount of change in tumor volume in the vehicle group

NCI-H1373 (KRAS-G12C) = test: In vivo antitumor activity, NCI-H1373 xenograft model (Example 12); design: species or system Nude mice; conditions: compound 1 3 mg/kg or 5 mg/kg, compound 2 0.25 mg/kg, orally once a day, 14 days, Figure 21
Experimental: as §2

NCI-H358 [4] = test: Cell growth inhibitory activity, ATP (CellTiter-Glo 2.0), isobologram (Example 2), NCI-H358; type: cell-based, Human; conditions: 144 hours
Experimental: as §1

NCI-H441 = test: Cell growth inhibitory activity, ATP (CellTiter-Glo 2.0), isobologram (Example 2), NCI-H441; type: cell-based, Human; conditions: set GI% 100%, 144 hours, test with RMC-4550
Experimental: as §1

Structure (SMILES): C[C@@H]1OCC2(CCN(c3cnc(Sc4ccnc(N)c4Cl)c(N)n3)CC2)[C@@H]1N [TNO155, (3S,4S)-8-(6-amino-5-((2-amino-3-chloropyridine-4-yl)thio)pyrazine-2-yl)-3-methyl-2-oxa-8-azaspiro[4.5]decane-4-amine]
- tumor volume, compared with vehicle group [1]: increase in tumor volume suppressed

Structure (SMILES): CC[C@H](C)[C@@H]1NC(=O)[C@H](CC(C)C)N(C)C(=O)C[C@@H](C(=O)N(C)C)N(C)C(=O)[C@H](C2CCCC2)N(C)C(=O)C2(CCCC2)NC(=O)[C@@H]2CCCN2C(=O)[C@H](CCc2cc(F)c(C(F)(F)F)c(F)c2)NC(=O)CN(C)C(=O)[C@H](Cc2ccc(C)cc2)N(CC)C(=O)[C@@H]2CCN2C(=O)[C@H](C)N(C)C1=O [compound 1, (5S,8S,11S,15S,18S,23aS,29S,35S,37aS)-8-((S)-sec-butyl)-18-cyclopentyl-29-(3,5-difluoro-4-(trifluoromethyl)phenethyl)-36-ethyl-11-isobutyl-N,N,5,6,12,16,19,33-octamethyl-35-(4-methylbenzyl)-4,7,10,13,17,20,23,28,31,34,37-undecaoxotetratriacontahydro-2H,4H-spiro[azeto[2,1-u]pyrrolo[2,1-i][1,4,7,10,13,16,19,22,25,28,31]undecaazacyclotetratriacontyne-21,1'-cyclopentane]-15-carboxamide] ([NMeL]I[NMeA][Aze][NEtPhe(4-Me)][Sar][hPhe(3,5-F2-4-CF3)]P[Ac5c][NMeGly(cPent)][NMeD]-NMe2; lactam N-11)
- GI50 (NCI-H358 [2]): 4.6 nM

Structure (SMILES): CNS(=O)(=O)Nc1nccc(Cc2cc(C(N)=O)c(Nc3ccc(C4CC4)cc3F)c(F)c2F)c1F [compound 2, 2-(4-cyclopropyl-2-fluoro-anilino)-3,4-difluoro-5-[[3-fluoro-2-(methylsulfamoylamino)-4-pyridyl]methyl]benzamide]
- tumor volume, compared with vehicle group [3]: increase in tumor volume suppressed
- tumor volume, compared with vehicle group (NCI-H1373 (KRAS-G12C)): increase in tumor volume suppressed

Structure (SMILES): Cc1nc(N2CCC3(CC2)CO[C@@H](C)[C@H]3N)c(CO)nc1-c1cccc(Cl)c1Cl [RMC-4550, 3-[(3S,4S)-4-amino-3-methyl-2-oxa-8-azaspiro[4.5]deca-8-yl]-6-(2,3-dichlorophenyl)-5-methyl-2-pyrazinemethanol]
- set GI concentration (concentration as a single drug giving GI 155) (NCI-H358 [4]; set GI% 155%, test with RMC-4550): 0.55 µM
- set GI concentration (concentration as a single drug giving GI 100) (NCI-H441): 0.35 µM

Structure (SMILES): CC(=O)Nc1cccc(-n2c(=O)n(C3CC3)c(=O)c3c(Nc4ccc(I)cc4F)n(C)c(=O)c(C)c32)c1 [trametinib, N-[3-[3-cyclopropyl-5-(2-fluoro-4-iodo-phenylamino)-6,8-dimethyl-2,4,7-trioxo-3,4,6,7-tetrahydro-2H-pyrido[4,3-d]pyrimidine-1-yl]phenyl]acetamide]
- GI50 (NCI-H358 [4]; Homo sapiens, set GI% 50%, single drug, test with trametinib, read-out: set GI concentration (concentration as a single drug giving GI 50)): 0.35 nM
